Test results taken from the Deep4Chem optical property database.

Assay: solvent given as SMILES

CC(C)CCCCN1CCc2c1ccc1c3c(ccc21)C(=O)CCC3
absorption maximum (in C1CCCCC1): 362 nm | absorption maximum (in CC#N): 370 nm | absorption maximum (in CC(C)O): 376 nm | absorption maximum (in CCC(C)=O): 368 nm | absorption maximum (in CCO): 374 nm | absorption maximum (in CCOC(C)=O): 366 nm | absorption maximum (in CS(C)=O): 376 nm | absorption maximum (in Cc1ccccc1): 368 nm | absorption maximum (in ClCCl): 373 nm | absorption maximum (in Clc1ccccc1): 370 nm

C[Si](C)(C)c1sc([Si](C)(C)C)c2c1sc1c3sc4c(sc5c4sc4c([Si](C)(C)C)sc([Si](C)(C)C)c45)c3sc12
absorption maximum (in ClC(Cl)Cl): 405 nm

O=S1(=O)C(c2cccs2)=C(c2cccs2)c2ccccc21
absorption maximum (in C1CCOC1): 372 nm

N#Cc1ccc(-c2ccc3c(c2)c2cc(-c4ccc(C#N)cc4)ccc2c2c3nc(-c3ccc(-c4ccc(N(c5ccccc5)c5ccccc5)cc4)cc3)n2-c2ccccc2)cc1
absorption maximum (in C1CCOC1): 360.44 nm | absorption maximum (in CC#N): 360.44 nm | absorption maximum (in CCCCCC): 370.05 nm | absorption maximum (in CCOCC): 366.21 nm

CN(C)c1ccc(-c2nc3cnccc3[nH]2)cc1
absorption maximum (in C1CCCCC1): 327 nm | absorption maximum (in C1CCOC1): 332 nm | absorption maximum (in C1COCCO1): 331 nm | absorption maximum (in CC#N): 335 nm | absorption maximum (in CCCCO): 339 nm | absorption maximum (in CCCO): 339 nm | absorption maximum (in CCO): 340 nm | absorption maximum (in CCOC(C)=O): 332 nm | absorption maximum (in CCOCC): 328 nm | absorption maximum (in CO): 341 nm | absorption maximum (in O): 335 nm

c1ccc(-c2nc(-c3ccccc3)nc(-c3ccc(N4c5ccccc5C5(c6ccccc64)c4ccccc4C4(c6ccccc6Sc6ccccc64)c4ccccc45)cc3)n2)cc1
absorption maximum (in Cc1ccccc1): 394.63 nm

Cc1cc(N2c3ccccc3[Si](c3ccccc3)(c3ccccc3)c3ccccc32)c(C)cc1-c1nc(-c2ccccc2)nc(-c2ccccc2)n1
absorption maximum (in Cc1ccccc1): 365.47 nm

Cc1cc(=O)oc2cc3c(cc12)c1c2ccccc2c2ccccc2c1c1c2ccccc2c2ccccc2c31
absorption maximum (in ClC(Cl)Cl): 386 nm

Cc1cc(C)c(B(c2ccc(N(c3ccccc3)c3ccccc3)cc2)c2c(C)cc(C)cc2C)c(C)c1
absorption maximum (in Cc1ccccc1): 380 nm

COc1ccc(-c2c3cc4ccccc4cc3c(C#Cc3ccccc3)c3cc4ccccc4cc23)cc1
absorption maximum (in ClCCl): 635 nm

O=c1[nH]c(=O)c2scc([C@H]3C[C@H](O)[C@@H](CO)O3)c2[nH]1
absorption maximum (in CC#N): 296 nm | absorption maximum (in CCOC(C)=O): 296 nm | absorption maximum (in CO): 294 nm | absorption maximum (in O): 294 nm

N#Cc1ccc(-c2nc(-c3ccccc3)c3ccccn23)cc1
absorption maximum (in C1CCCCC1): 377 nm | absorption maximum (in CC#N): 377 nm | absorption maximum (in CO): 372 nm | absorption maximum (in ClCCl): 380 nm | absorption maximum (in O): 430 nm

F[B-]1(F)n2c(c(-c3ccccc3)c3ccccc32)C(c2ccccc2)=C2C(c3ccccc3)=c3ccccc3=[N+]21
absorption maximum (in ClCCl): 568 nm

N#Cc1c(N2CCCCC2)cc(-c2cccc3ccccc23)c2c1C(=O)c1ccccc1-2
absorption maximum (in C1CCOC1): 344 nm

Oc1ccc2ccccc2c1/C=N/C1CCCCC1/N=C/c1c(O)ccc2ccccc12 (configuration not stated)
absorption maximum (in CC#N): 397 nm

C[n+]1ccnc(/C=C/c2ccc(N(c3ccccc3)c3ccc(/C=C/c4c[n+](C)ccn4)cc3)cc2)c1
absorption maximum (in CS(C)=O): 440 nm | absorption maximum (in O): 485 nm | absorption maximum (in OCC(O)CO): 500 nm

Fc1ccc2sc3nc(-c4ccccc4)sc3c2c1
absorption maximum (in CS(C)=O): 345 nm

CCCCCCCCCCCCCCCCCCOc1ccc([B-]23NC(c4ccccc4)=Nc4cccc([n+]42)N=C(c2ccccc2)N3)cc1
absorption maximum (in ClCCl): 431 nm

c1ccc2c(C3=C(c4cccc5ccccc45)c4cccc5c4c(cc4nc6ccccc6nc45)O3)cccc2c1
absorption maximum (in ClCCl): 486 nm

Fc1c(F)c(F)c([B-]2(c3c(F)c(F)c(F)c(F)c3F)Oc3c(ccc4c5c(ccc34)C=[N+](c3ccccc3)[B-](c3c(F)c(F)c(F)c(F)c3F)(c3c(F)c(F)c(F)c(F)c3F)O5)C=[N+]2c2ccccc2)c(F)c1F
absorption maximum (in C1CCOC1): 522 nm | absorption maximum (in CC#N): 515 nm | absorption maximum (in CC(C)=O): 515 nm | absorption maximum (in Cc1ccccc1): 531 nm | absorption maximum (in ClCCl): 533 nm

O=C(c1ccc(C(=C(c2ccc(C(=O)c3ccc(-n4c5ccccc5c5ccccc54)cc3)cc2)c2ccc(C(=O)c3ccc(-n4c5ccccc5c5ccccc54)cc3)cc2)c2ccccc2)cc1)c1ccc(-n2c3ccccc3c3ccccc32)cc1
absorption maximum (in C1CCOC1): 340 nm

CCOC(=O)c1c2c3c(ccc([N+](=O)[O-])c3c3cc4c(cc13)[Si](C)(C)O[Si]4(C)C)N(C)C2=O
absorption maximum (in CC#N): 376 nm

COc1ccc(/C=C(\C#N)c2nc(-c3ccc(Cl)cc3)cs2)cc1
absorption maximum (in CC#N): 373 nm

CCOC(=O)C1=C(C(=O)OC)N2CCc3cc(OC)c(OC)cc3C2=C[C@H](c2ccc(Cl)cc2)C12c1ccccc1-c1ccccc12
absorption maximum (in ClCCl): 310 nm

CCn1c2ccccc2oc2c(C#N)c3oc4ccccc4oc3c(C#N)c21
absorption maximum (in ClC(Cl)Cl): 470 nm

CCOC(=O)c1ccccc1-c1c2ccc(=O)cc-2oc2cc(OC(=O)[C@H](CSCc3ccc(C)cc3)NC(=O)OC(C)(C)C)ccc12
absorption maximum (in C1CCOC1): 431 nm | absorption maximum (in CC#N): 431 nm | absorption maximum (in CCO): 435 nm | absorption maximum (in CS(C)=O): 457 nm

CN(C)CCCN1c2ccccc2CCc2ccccc21
absorption maximum (in CC#N): 276 nm | absorption maximum (in CO): 274 nm | absorption maximum (in O): 275 nm

S=C1CCCCC1
absorption maximum (in CCO): 495 nm

N#Cc1nn(-c2ccc(Cl)cc2)nc1N1CCCC1
absorption maximum (in CC#N): 346 nm

COc1ccc(/C=C/c2nc(-c3ccc([N+](=O)[O-])cc3)[nH]c2/C=C/c2ccc(OC)cc2)cc1
absorption maximum (in ClCCl): 455 nm

c1ccc2cc(-n3c4ccccc4c4ccccc43)ccc2c1
absorption maximum (in C1CCCCC1): 318 nm | absorption maximum (in C1CCOC1): 320 nm | absorption maximum (in CC#N): 321 nm | absorption maximum (in CCO): 320 nm | absorption maximum (in CCOC(C)=O): 318 nm | absorption maximum (in CCOCC): 319 nm | absorption maximum (in CO): 319 nm | absorption maximum (in Cc1ccccc1): 319 nm | absorption maximum (in ClC(Cl)Cl): 321 nm

CCCCCCCCCCCCCCCCCC(=O)Oc1cc2[nH]c(cc2CCOC)c2nc(ccc3[nH]c(cc3CCOC)c3nc1C(CCOC)=C3)C(CCOC)=C2
absorption maximum (in Cc1ccccc1): 646 nm

COc1ccc(/C=C/C2=CC(/C=C/c3ccc(OC)cc3)=[O+][B-](OC(C)=O)(OC(C)=O)O2)cc1
absorption maximum (in C1CCOC1): 456 nm | absorption maximum (in CC#N): 462 nm | absorption maximum (in CC(C)=O): 458 nm | absorption maximum (in CS(C)=O): 468 nm | absorption maximum (in Cc1ccccc1): 456 nm | absorption maximum (in ClC(Cl)Cl): 464 nm | absorption maximum (in ClCCl): 464 nm

C1=C(c2ccccc2)C=C(c2ccccc2)/C1=C/c1ccc2c(c1)Cc1ccccc1-2
absorption maximum (in C1CCOC1): 384 nm

COC(=O)c1c(-c2cc3ccccc3oc2=O)nn(-c2ccccc2)c1C(=O)OC
absorption maximum (in ClCCl): 322 nm

CCCCCCC(CCCCCC)N1C(=O)c2cccc3c(-c4ccc(OC)c5ccccc45)ccc(c23)C1=O
absorption maximum (in CCCCCC): 322.6 nm | absorption maximum (in CCCCCCCCCCCCCC): 322.6 nm | absorption maximum (in CCCCCCCCCCCO): 323.8 nm | absorption maximum (in CCCCO): 323.6 nm | absorption maximum (in CN(C)C=O): 323.8 nm | absorption maximum (in Cc1ccccc1): 324 nm | absorption maximum (in ClC(Cl)Cl): 325 nm

N#Cc1c(N2CCCCC2)cc(-c2cccc3ccccc23)c2c1CCc1ccccc1-2
absorption maximum (in C1CCOC1): 353 nm

[O-][n+]1c(-c2ccccc2)cc(N2CCOCC2)nc1/C=C/c1ccccc1
absorption maximum (in ClCCl): 445 nm

O=C1c2ccccc2-c2c(-c3ccccc3)c(-c3ccccc3)c(-c3ccccc3)c3cccc1c23
absorption maximum (in CC#N): 401 nm | absorption maximum (in CO): 407 nm

CCn1c2ccccc2c2cc(C#Cc3cc(C#Cc4ccc5c(c4)c4ccccc4n5CC)ncn3)ccc21
absorption maximum (in C1CCOC1): 382 nm | absorption maximum (in CCOC(C)=O): 379 nm | absorption maximum (in CN(C)C=O): 386 nm | absorption maximum (in Cc1ccccc1): 383 nm | absorption maximum (in ClCCl): 386 nm

CCCCN1C(=O)C(=C/C=C/C=C/C=C2N(CCCC)c3ccccc3N2CCCC)C(=O)N(CCCC)C1=S
absorption maximum (in CC#N): 540 nm | absorption maximum (in CCCCCC): 678 nm | absorption maximum (in CCO): 492 nm | absorption maximum (in CN(C)C=O): 549 nm | absorption maximum (in CO): 483 nm | absorption maximum (in Cc1ccccc1): 689 nm | absorption maximum (in ClC(Cl)Cl): 658 nm | absorption maximum (in ClCCl): 642 nm | absorption maximum (in OCC(F)(F)F): 464 nm

N#Cc1nc(N(Cc2ccccc2)Cc2ccccc2)c(C#N)nc1N(Cc1ccccc1)Cc1ccccc1
absorption maximum (in ClC(Cl)Cl): 493 nm

C[C@]12SC(=O)C=C1c1nc(-c3ccc(O)cc3)[nH]c1C1=CC(=O)S[C@@]12C
absorption maximum (in CC#N): 470 nm

c1ccc(-c2c3ccccc3c(-c3ccc4ccccc4c3)c3ccccc23)nc1
absorption maximum (in ClCCl): 375 nm

CB1C=Cc2ccc3ccccc3c2N1
absorption maximum (in C1CCCCC1): 352 nm

CCCCN(CCCC)c1ccc2c(c1)C#CC#Cc1cc(C(F)(F)F)ccc1C#Cc1cc(c3cc1C#Cc1ccc(N(CCCC)CCCC)cc1C#CC#Cc1cc(C(F)(F)F)ccc1C#C3)C#C2
absorption maximum (in ClCCl): 477 nm

Cc1c2c(c(C)c3ccccc13)C1=CC3Nc4ccccc4NC3C=C12 (configuration not stated)
absorption maximum (in ClC(Cl)Cl): 470 nm

C#CCOc1ccc(C2=[N+]3C(=Nc4c(-c5ccccc5)cc(-c5ccc(O)cc5)n4[B-]3(F)F)C(c3ccccc3)=C2)cc1
absorption maximum (in CO): 688 nm | absorption maximum (in Cc1ccccc1): 685 nm | absorption maximum (in ClC(Cl)Cl): 680 nm

COc1ccc(C2=C3C=c4c(oc5ccccc45)=[N+]3[B-](F)(F)n3c2cc2c4ccccc4oc23)cc1
absorption maximum (in C1CCCCC1): 583.5 nm | absorption maximum (in CCOC(C)=O): 578 nm | absorption maximum (in CO): 576.5 nm

CCOC(=O)c1cc(C(=O)OCC)c2cc(O)ccc2n1
absorption maximum (in CCO): 364 nm

OC1(c2ccc(-c3cccs3)s2)CCCC1
absorption maximum (in C1CCOC1): 344 nm | absorption maximum (in CC#N): 343 nm | absorption maximum (in CCCCCC): 341 nm | absorption maximum (in CCO): 342 nm | absorption maximum (in OCCOCCO): 347 nm | absorption maximum (in c1ccncc1): 348 nm

CC(C)(C)c1ccc2c(c1)c1cc(C(C)(C)C)ccc1n2-c1cc[n+]2c(c1)-c1ccccc1O[B-]2(F)F
absorption maximum (in Cc1ccccc1): 375 nm

COc1ccc(-c2c3ccc([nH]3)c3nc(c(-c4ccc([N+](=O)[O-])cc4)c4ccc([nH]4)c4ccc([nH]4)c(-c4ccc(OC)cc4)c4ccc2o4)C=C3)cc1
absorption maximum (in C1CCOC1): 446 nm | absorption maximum (in Cc1ccccc1): 448 nm | absorption maximum (in c1ccccc1): 448 nm
